Laboratory results published in patent US9408856B2, “Topical steroidal formulations” (Temple University—Of The Commonwealth System of Higher …, priority 2008, dated 2016).
≈ marks a conversion by molar mass, not a printed value.

Tests used:
[1] = PK study in human volunteers (phase I); assay type: in vivo; details: 12 human volunteers; calculated for 1200 mg oral dose from AUC0-24/mg at 800 mg or 1600 mg daily
Procedure: An oral single dose PK experiment in mice following administration of 200 mg/kg fluasterone was performed. The calculated AUC0-24 was 2,242 (ngXh/mL). A PK study was also performed in 12 human volunteers as part of a phase I fluasterone study. The volunteers received either 800 mg or 1600 mg fluasterone orally as a daily dose. The AUC0-24/mg dose was calculated.

[2] = tested on: TPA-stimulated epidermal hyperplasia in mouse skin; assay: TPA-stimulated epidermal hyperplasia in mouse skin, subcutaneous fluasterone; assay type: in vivo, mice; details: subcutaneous injection
Procedure: In dose-response experiments the anti-hyperplastic efficacy of fluasterone in TPA-treated mouse epidermis to determine bioavailability following different routes of administration was measured. Mice were treated with a single dose of fluasterone (either orally, subcutaneously, or transdermally) followed by a single application of TPA to the shaved back one hour latter. In case of transdermal administration, fluasterone is applied in a topical formulation to the shaved abdomen to allow for systemic absorption to the back of the animal. Twenty hours after TPA application, the mice are injected with 60 μCi of [3H] thymidine, sacrificed 20 minutes later, and a 2×2 cm2 of skin from the shaved back is excised and processed for the determination of the amount of [3H] thymidine incorporated per unit of epidermal DNA. (Hennings et. al., Cancer Res. 28:543-552, 1968).

[3] = tested on: TPA-promoted skin tumor promotion; details: Schwartz et al. Carcinogenesis 10:1809-1813, 1989; cited from earlier work
[4] = Solubility of fluasterone in solvents and mixed solvents; assay type: physicochemical; details: thermodynamic from solid
Procedure: Fluasterone: The solubility of fluasterone in various solvents was determined by adding a specific volume of solvent to a weighed amount of fluasterone in a screw-capped glass vial and shaking vigorously for several minutes. Incremental volumes of solvent were added, followed by vigorous shaking, until the fluasterone completely dissolved.
Alternatively solubility was determined by adding a specific volume of solvent to a weighed amount of fluasterone in a screw-capped glass vial and warming the vial on a hot plate with vigorous shaking until the fluasterone dissolved. Fluasterone was considered soluble if it remained in solution after at least a month at room temperature. Although the above procedures may not give precise solubilities, they should give a close approximation of maximum fluasterone solubility.
In these experiments fluasterone solubility was determined by adding fluasterone to a measured volume of solvent in a screw-capped glass vial. The vial was warned on a hot plate with vigorous shaking until the fluasterone dissolved. Fluasterone was considered soluble if it remained in solution after at least a month at room temperature.

[5] = tested on: fasting plasma triglyceride levels; assay: Phase I/II trial in hypertriglyceridemic patients; assay type: in vivo, human; details: about 1200 mg oral
Procedure: The lowest effective oral dose of fluasterone which lowers fasting plasma triglycerides in diabetic mice is about 200 mg/kg, which translates into an oral human dose of about 1200 mg.

In the case of `C[C@]12CCCCC1=CC[C@@H]1[C@@H]2CC[C@]2(C)C(=O)[C@H](F)C[C@@H]12` [Fluasterone, 16α-fluoro-5-androsten-17-one], the AUC0-24 [1] is listed as 2,316 ngXh/mL, the “lowest effective dose which abolishes TPA-stimulated epidermal hyperplasia” value [2] is listed as 2.5 to 5 mg/kg and the “lowest reported oral dose which inhibits TPA-promoted skin tumor promotion” value [3] is listed as 200 mg/kg. For the same compound, the solubility ([4]; 10% Tween 80-90% ethanol (v/v), organic solvent or mixture, room temperature) was less than 10000 µg/mL, the solubility ([4]; 15% Tween 80-85% ethanol (v/v), organic solvent or mixture, room temperature) was less than 10000 µg/mL and the solubility ([4]; 20% Tween 80-80% ethanol (v/v), organic solvent or mixture, room temperature) was greater than 10000 µg/mL. It also gave a solubility ([4]; 50% Tween 80-50% ethanol (v/v), organic solvent or mixture, room temperature) greater than 14000 µg/mL, a solubility ([4]; cetyl alcohol:ethanol (10%:90%, w/w), organic solvent or mixture, cetyl alcohol:ethanol (10%:90%, w/w), room temperature) of less than 10000 µg/mL and a solubility ([4]; cetyl alcohol:ethanol (20%:80%, w/w), organic solvent or mixture, cetyl alcohol:ethanol (20%:80%, w/w), room temperature) of less than 12000 µg/mL. It also gave a solubility ([4]; cetyl alcohol:ethanol mixtures (20-22% cetyl alcohol), organic solvent or mixture, cetyl alcohol:ethanol mixtures (20-22% cetyl alcohol), summary, room temperature) greater than 10000 µg/mL, a solubility ([4]; dimethyl sulfoxide (DMSO), organic solvent or mixture) of 3600 µg/mL (≈ 12.4 mM) and a solubility ([4]; ethanol, organic solvent or mixture) of 6600 µg/mL (≈ 22.7 mM). It also gave a solubility ([4]; isopropyl myristate, oil or lipid) of 16000 µg/mL (≈ 55.1 mM), a solubility ([4]; limonene, organic solvent or mixture) of 22600 µg/mL (≈ 77.8 mM) and a solubility ([4]; polyethylene glycol 400 (PEG-400), organic solvent or mixture) of 1100 µg/mL (≈ 3.79 mM). The solubility ([4]; propylene glycol, organic solvent or mixture) was greater than 500 µg/mL and the “effect on fasting plasma triglyceride levels” value [5] was “significantly lowered”.
